Results published in patent publication US20060258670A1, “New phenylpyridylpiperazine compounds” (priority 2005, published 2006).

How the values were obtained:
Adult male Wistar rats = test: Electroencephalographic recordings on freely moving rats; assay type: in vivo; conditions: Wistar rat, EEG
Description: Adult male Wistar rats were chronically implanted with electrodes placed over the frontal and panetal cortex. Cortical electroencephalogram (EEG) was recorded from rats placed inside cages in a sound attenuating-room. Compounds and vehicle were administered in a random order at 10:00 AM on the same days with a minimum of 3 days between each administration, allowing each rat to serve as its own control. Absolute power of slow wave delta band activity (1-4 Hz), that predominates during slow wave sleep and disappears during wakefulness and rapid eyes movement sleep, was averaged over successive periods of 30 min. Over 30 min, low and high values of slow wave delta power are signs of arousal and sleep, respectively.

[1] = molecular target: T1, type H3 central histamine receptors (Mus musculus, UniProt P58406); test: Cerebral levels of N^t-methylhistamine in the NMRI mouse (ex vivo, RIA); conditions: one hour after treatment, versus carrier
T1 construct: from tissue; host or cells: brain of living NMRI mice
Description: The purpose of this study, which was carried out in accordance with the method of Taylor et al. (Biochem. Pharm., 1992, 44, 1261-1267), is to evaluate the ex vivo activity of the compounds of the present invention as antagonists of type H3 central histamine receptors. […] An increase in the cerebral concentrations of N^t-methylhistamine indicates an increase in the turn-over of histamine by blockage of the type H3 central histamine receptors.
NMRI mice (18-20 g) are treated intraperitoneally or orally with compounds of the present invention or with their carrier (20 ml/kg). One hour after the pharmacological treatment, the animals are sacrificed, and their brains are removed, frozen in liquid nitrogen, weighed and homogenised in 0.1N HClO4 at 4° C. The homogenised products are centrifuged (15 000 g, 17 min, 4° C.). The supernatants are recovered and divided into aliquots. The aliquots are frozen in, liquid nitrogen and stored at −80° C. until analysis.
Determination of the cerebral levels of N^t-methylhistamine is carried out by radioimmunological assay (RIA) using an assay kit. The tissue levels of N^t-methylhistamine are expressed in […] of fresh brain. The comparison of the cerebral levels of N^t-methylhistamine between animals treated with the carrier (controls) and animals treated with compounds of the present invention is carried out by single-factor variance analysis followed, if necessary, by a complementary analysis (Dunnett's test).

T1 sequence (P58406 whole entry): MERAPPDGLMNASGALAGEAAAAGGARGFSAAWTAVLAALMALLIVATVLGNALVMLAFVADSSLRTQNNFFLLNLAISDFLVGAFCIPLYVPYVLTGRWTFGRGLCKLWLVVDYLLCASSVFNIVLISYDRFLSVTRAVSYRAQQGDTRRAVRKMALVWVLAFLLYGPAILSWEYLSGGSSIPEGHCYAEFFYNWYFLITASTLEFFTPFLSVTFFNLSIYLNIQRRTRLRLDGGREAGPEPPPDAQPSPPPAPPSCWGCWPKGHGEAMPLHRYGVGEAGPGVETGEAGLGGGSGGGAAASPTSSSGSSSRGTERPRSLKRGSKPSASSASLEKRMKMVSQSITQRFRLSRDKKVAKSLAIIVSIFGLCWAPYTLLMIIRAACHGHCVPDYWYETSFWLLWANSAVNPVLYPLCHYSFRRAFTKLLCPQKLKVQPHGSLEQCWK

increase of endogenous cerebral concentrations of N^t-methylhistamine ([1]; 10 mg/kg PO) [%]	increase of endogenous cerebral concentrations of N^t-methylhistamine ([1]; 3 mg/kg PO) [%]	SMILES	duration of significant reduction of slow wave delta power (cortical activation and arousal) (Adult male Wistar rats; 0.3 mg/kg) [min]	sleep latency: first slow wave sleep episode after administration (Adult male Wistar rats; 3 mg/kg, control group 45±5 minutes) [min]
121	–	CC(C)N1CCN(c2ccc(-c3ccc(S(=O)(=O)N4CCN(C)CC4)cc3)cn2)CC1.Cl.Cl.Cl [Example 9, 1-Isopropyl-4-(5-{4-[(4-methylpiperazin-1-yl)sulphonyl]phenyl}pyridin-2-yl)piperazine trihydrochloride]	–	–
–	168	CC(C)CN1CCN(c2ccc(-c3ccc(S(=O)(=O)N4CCOCC4)cc3)cn2)CC1.Cl.Cl [Example 21, 4-({4-[6-(4-Isobutylpiperazin-1-yl)pyridin-3-yl]phenyl}sulphonyl)-morpholine dihydrochloride]	–	–
197	–	CCN1CCN(c2ccc(-c3ccc(S(=O)(=O)N4CCCCC4)cc3)cn2)CC1.Cl.Cl [Example 5]	–	–

SMILES	increase of endogenous cerebral concentrations of N^t-methylhistamine ([1]; 10 mg/kg PO) [%]	increase of endogenous cerebral concentrations of N^t-methylhistamine ([1]; 3 mg/kg PO) [%]	duration of significant reduction of slow wave delta power (cortical activation and arousal) (Adult male Wistar rats; 0.3 mg/kg) [min]	sleep latency: first slow wave sleep episode after administration (Adult male Wistar rats; 3 mg/kg, control group 45±5 minutes) [min]
CC(C)N1CCN(c2ccc(-c3ccc(S(=O)(=O)N4CCOCC4)cc3)cn2)CC1.Cl.Cl [Example 1]	105	–	150	73 ± 5
